Measured values as given in patent US10485844B2, “Methods for treating severe atopic dermatitis by administering an IL-4R inhibitor” (Regeneron Pharmaceuticals, Inc., priority 2016, dated 2019).
“Also recorded” adds a separate entry of the source. Where two headings read alike, the source gives them in different places.

Experiments:
[1] = system: adults with moderate-to-severe AD; experiment: 1-year placebo-controlled trial of dupilumab + TCS: subgroup analysis by CsA eligibility / CsA history; type: in vivo, human; conditions: for proportion of patients achieving a 75% improvement in EASI / proportion of patients achieving a ≥4-point improvement in peak pruritus numerical rating scale / Patients achieving EASI-75, n (%) / Patients achieving a peak pruritus NRS score improvement ≥4 points from baseline, n/N1 (%): Week 52; for Patients achieving a peak pruritus NRS score improvement ≥4 points from baseline, n/N1 (%): baseline NRS ≥4
Description: Patients were randomized 3:1:3 (dupilumab 300 mg weekly [qw], every two weeks [q2w], or placebo). Patients received concomitant low and/or medium potency TCS, which could be tapered and discontinued based on clinical response. Topical calcineurin inhibitors could be used in areas considered inadvisable for TCS.
In further analysis, the efficacy and safety of dupilumab vs placebo (PBO) at 52 weeks was compared in two patient (pt) subsets of the population: pts who were earlier treated with CsA but responded inadequately or were intolerant to CsA (subset A; n=114) and the remaining study population (subset B; n=509). Subset A pts had, on average, more severe disease than subset B pts, as assessed by Eczema Area and Severity Index (EASI) (mean baseline±SD EASI score 37.0±12.70 vs 31.6±12.77; nominal p<0.0001 [post-hoc analysis]).

[2] = Phase 2a pediatric study: pharmacokinetic profile of dupilumab; type: in vivo, human; conditions: pediatric patients with AD, compared with adults
Description: The study consisted of a screening period (day −35 to day −1), a baseline visit, Part A (including a single-dose treatment followed by an 8-week semi-dense PK sampling period), and Part B (including a 4-week repeat-dose treatment period [4 weekly doses] followed by an 8-week follow-up period).
Safety and tolerability was assessed by vital signs, physical examinations, clinical laboratory tests, and clinical evaluations. Patients were asked to monitor all adverse events (AEs) experienced from the time of informed consent/assent until their last study visit. Serum samples were collected for assay of dupilumab levels, and PK parameters were calculated using the dupilumab concentration data. Serum samples were collected for assay of ADA, and exploratory analyses. Efficacy was assessed during the study at specified clinic visits using the Pruritus NRS, SCORAD, and EASI that measure the extent and severity of AD, and the IGA that rates the overall severity of AD.

[3] = Functional dupilumab concentrations in serum, two 16-week phase 3 monotherapy studies; type: in vivo, human; conditions: for mean functional concentration of dupilumab in serum: monotherapy
Description: The studies were multicenter, randomized, double-blind, placebo-controlled studies of subcutaneously administered dupilumab in 1379 adult patients; each had duration of 16 weeks (NCT02277743 and NCT02277769). Patients were randomized 1:1:1 to placebo, dupilumab 300 mg every week (qw), and dupilumab 300 mg every 2 weeks (q2w); patients randomized to dupilumab received a loading dose of 600 mg. Presented here are functional dupilumab concentrations measured in serum from blood samples at various pharmacokinetic time-points and analyzed using descriptive statistics.

[4] = system: CYP3A; experiment: Effect of dupilumab on PK of CYP substrate cocktail: midazolam; conditions: 600 mg loading dose, then 300 mg weekly
Description: (§1) Subcutaneous dupilumab was administered as a 600 mg loading dose on Day 8, followed by a weekly dose of 300 mg from Day 15 to Day 50. PK parameters included Geometric Mean Ratios (GMR) of AUClast (area under the plasma concentration-time curve from time zero to the time of the last quantifiable concentration) and Cmax (maximum observed plasma concentration) measured at Day 1 and Day 36, while efficacy assessments included changes in Eczema Area and Severity Index (EASI) scores (scale 0-72).

[5] = system: adults with moderate-to-severe AD; conditions: for decrease in mean EASI (SD) score: 600 mg on Day 8, then 300 mg weekly
Description: as §1

dupilumab: fully human anti-IL-4R antibody; heavy chain SEQ ID NO: 9, light chain SEQ ID NO: 10
treatment-emergent adverse event (TEAE) rate ([1]; CSA-eligible, dupilumab q2w): 87.2% | treatment-emergent adverse event (TEAE) rate ([1]; CSA-eligible, dupilumab qw): 81.7% | treatment-emergent adverse event (TEAE) rate ([1]; CSA-ineligible, dupilumab q2w): 91.7% | treatment-emergent adverse event (TEAE) rate ([1]; CSA-ineligible, dupilumab qw): 88.5% | proportion of patients achieving a 75% improvement in EASI ([1]; CsA-eligible, dupilumab 300 mg q2w + TCS): 69.1% | proportion of patients achieving a 75% improvement in EASI ([1]; CsA-eligible, dupilumab 300 mg qw + TCS): 67.0% | proportion of patients achieving a ≥4-point improvement in peak pruritus numerical rating scale ([1]; CsA-eligible, dupilumab q2w): 53.8% | proportion of patients achieving a ≥4-point improvement in peak pruritus numerical rating scale ([1]; CsA-eligible, dupilumab qw): 39.7% | proportion of patients achieving a 75% improvement in EASI ([1]; CsA-ineligible, dupilumab 300 mg q2w + TCS): 52.4% | proportion of patients achieving a 75% improvement in EASI ([1]; CsA-ineligible, dupilumab 300 mg qw + TCS): 50.0% | proportion of patients achieving a ≥4-point improvement in peak pruritus numerical rating scale ([1]; CsA-ineligible, dupilumab q2w): 42.9% | proportion of patients achieving a ≥4-point improvement in peak pruritus numerical rating scale ([1]; CsA-ineligible, dupilumab qw): 35.6% | Patients achieving EASI-75, n (%) ([1]; Subset A (inadequate response or intolerance to CsA), Dupilumab 300 mg Q2W ± TCS (N = 19)): (52.6) % | Patients achieving a peak pruritus NRS score improvement ≥4 points from baseline, n/N1 (%) ([1]; Subset A, Dupilumab 300 mg Q2W ± TCS): (47.4) % | Patients achieving EASI-75, n (%) ([1]; Subset A, Dupilumab 300 mg QW ± TCS (N = 43)): (48.8) % | Patients achieving a peak pruritus NRS score improvement ≥4 points from baseline, n/N1 (%) ([1]; Subset A, Dupilumab 300 mg QW ± TCS): (38.1) % | Patients achieving EASI-75, n (%) ([1]; Subset B (remaining study population), Dupilumab 300 mg Q2W ± TCS (N = 70)): (68.6) % | Patients achieving a peak pruritus NRS score improvement ≥4 points from baseline, n/N1 (%) ([1]; Subset B, Dupilumab 300 mg Q2W ± TCS): (52.2) % | Patients achieving EASI-75, n (%) ([1]; Subset B, Dupilumab 300 mg QW ± TCS (N = 227)): (67.0) % | Patients achieving a peak pruritus NRS score improvement ≥4 points from baseline, n/N1 (%) ([1]; Subset B, Dupilumab 300 mg QW ± TCS): (39.1) % | pharmacokinetic profile [2]: consistent with adults | ratio (qw:q2w) of mean functional concentrations ([3]; Week 16): 2.4 | mean functional concentration of dupilumab in serum ([3]; dupilumab 300 q2w (600 mg loading dose), Week 16): ~75 mg/L | mean functional concentration of dupilumab in serum ([3]; dupilumab 300 qw (600 mg loading dose), Week 16): 180 mg/L | share of the Week 12 Ctrough reached by Week 4 ([3]; q2w dose, 600 mg loading dose): ~80% | share of the Week 12 Ctrough reached by Week 4 ([3]; qw dose): ~67% | effect of dupilumab on the PK of midazolam / activity of CYP3A [4]: no meaningful effect; also recorded: does not have a meaningful effect | decrease in mean EASI (SD) score ([5]; Day 35): 59.3% (37.6) | decrease in mean EASI (SD) score ([5]; Day 50): 87.2% (13.4) | patients with at least one adverse event (AE) ([5]; in vivo): 3 patients | serious AE leading to treatment discontinuation (systemic inflammatory response syndrome) ([5]; in vivo): 1
